Laboratory results taken from ChEMBL document CHEMBL1782038, “Heterocyclic replacement of the central phenyl core of diamine-based histamine H3 receptor antagonists” (Eur J Med Chem, 2009).

Key:
in vivo [1] = details: Sprague-Dawley, rat, po, 10 mg/kg
in vivo [2] = details: Sprague-Dawley, rat, po, 10 mg/kg; remark: listed apart in the source
in vivo [3] = details: Sprague-Dawley, rat, iv, 1 mg/kg
in vivo [4] = details: Sprague-Dawley, rat, iv, 1 mg/kg; remark: listed apart in the source
in vivo [5] = details: Sprague-Dawley, rat, po, 10 mg/kg; remark: listed apart in the source
Rattus norvegicus = organism: Rattus norvegicus; details: in vivo, po, 10 mg/kg
in vivo [6] = details: Sprague-Dawley, rat, po, 10 mg/kg; remark: listed apart in the source
in vivo [7] = details: Sprague-Dawley, rat, iv, 1 mg/kg; remark: listed apart in the source

**Q.** For `CC(C)N1CCN(C(=O)c2ccc(CN3CCCCC3)cc2)CC1`, which bioavailability (in vivo [1]) is on record?
**A.** 54%

**Q.** What about the Tmax (in vivo [2]) of the same molecule?
**A.** 1.7 h

**Q.** What about the half-life (in vivo [3]) of the same molecule?
**A.** 13.8 h

**Q.** And the Vd (in vivo [4])?
**A.** 10.6 L

**Q.** What about the half-life (in vivo [5]) of the same molecule?
**A.** 33.6 h

**Q.** And the Vz (Rattus norvegicus)?
**A.** 41.1 L

**Q.** And the CL/F (in vivo [6])?
**A.** 18.3 mL/min

**Q.** And the clearance (in vivo [7])?
**A.** 9.67 mL/min
